Experimental findings from US20220332782A1, “Combined Artificial Cell Death/Reporter System Polypeptide for Chimeric Antigen Receptor Cell and Uses Thereof” (Century Therapeutics, Inc., priority 2021, published 2022) are described below.

What all share (format): cell-based
Experiment [1] has as its system iPSCs expressing HSV-TK alone. Description: ganciclovir killing of iPSCs transfected with HSV-TK alone (p1474), cell confluency by imaging. Conditions: 1 μM ganciclovir, 24 and 48 hours. The procedure:
(§1) The ability to induce cell death in cells expressing the HSV-TK-PSMA fusion or HSV-TK alone was next tested. […] The resulting plasmid (p1474; shown in FIG. 4) was sequenced and grown up for purification using the Qiagen maxi-prep kit. Next, iPSCs were transfected with the p1499 or p1474 plasmids. Transfected and untransfected cells were plated into 6 well dishes (2×10^5 cells/well) and treated with and without 1 μM ganciclovir and imaged at 24 and 48 hours to monitor cell growth. […] It will be appreciated by those skilled in the art that changes could be made to the embodiments described above without departing from the broad inventive concept thereof. It is understood, therefore, that this invention is not limited to the particular embodiments disclosed, but it is intended to cover modifications within the spirit and scope of the present invention as defined by the present description.

The test system of experiment [2] is wild-type (WT; un-engineered) iPSCs. Kind of experiment: ganciclovir treatment of wild-type (un-engineered) iPSCs, visual inspection. Conditions: increasing concentrations of ganciclovir, 60 hours. From the text: (§2) FIGS. 6A-6B show results from cells transfected with a HSV-TK […]-T2A-PSMA transgene.
Experiment [3] deals with HSV-TK (A168H)-T2A-PSMA engineered iPSCs. Description: ganciclovir killing of HSV-TK (A168H)-T2A-PSMA engineered iPSCs, visual inspection. The conditions noted are these: 1 uM ganciclovir, 60 hours.
Excerpt: as §2

The next experiment concerns untransfected iPSCs. Description: ganciclovir treatment of untransfected iPSCs (WT control), cell confluency by imaging. The conditions noted are these: 1 μM ganciclovir. The procedure:
as §1

Experiment [4] has as its system iPSCs expressing the HSV-TK-PSMA fusion. Description: ganciclovir killing of iPSCs transfected with HSV-TK-PSMA fusion (p1499), cell confluency by imaging. Conditions: 1 μM ganciclovir. The procedure:
as §1

On to `Nc1nc(O)c2ncn(COC(CO)CO)c2n1` [ganciclovir], for which the “confluency compared with untreated cells” value in experiment [1] was “reduced confluency”; in experiment [4] (24 and 48 hours) it was “reduced confluency”. Also, the “effect on un-engineered cells” value in experiment [2] is “unaffected”. In experiment [3], the killing is given as ~100%. In addition, in the experiment with untransfected iPSCs (24 hours and 48 hours), the “effect on cell growth” value is listed as “no effect”. Also, the cell confluency in the experiment with untransfected iPSCs (48 hours, WT cells) was determined as 73%; in experiment [4] (48 hours, iPSCs expressing HSV-TK-PSMA), 6%.
